The text below walks through data of article PMC9377006, “Discovery of Desmuramylpeptide NOD2 Agonists with Single-Digit Nanomolar Potency” (ACS Medicinal Chemistry Letters, 2022).

The assay has as its system PBMCs. In words: Cytokine release from peripheral blood mononuclear cells. The format is cell-based. To be noted: human PBMCs. An excerpt:
Encouraged by the potent NOD2 activity of 40, we preliminarily evaluated its immunostimulatory potential in human primary peripheral blood mononuclear cells (PBMCs). Specifically, we first investigated the ability of 40 to induce cytokine production in PBMCs. While activation of NOD2 alone is sufficient to elicit cytokine responses, these responses are usually of low intensity. However, NOD2 agonists can act in synergy with ligands of other innate immune receptors and proinflammatory cytokines to induce considerably stronger responses. We were particularly intrigued by the synergistic interactions between NOD2, TLR4, and IFN-γ. The synergy between NOD2 agonists and TLR4 agonists in terms of cytokine secretion, including IFN-γ, is well-established.[29],[30] Similarly, IFN-γ has previously been reported to augment the MDP-mediated activation and cytokine production by dendritic cells and macrophages.[31],[32]
Figure 2 Synergistic effects of 40 with LPS and IFN-γ on induction of cytokine production from PBMCs. Cytokine concentrations were measured after 18 h of stimulation with NOD2 agonists (1 μM) in the presence or absence of LPS (10 ng/mL) and IFN-γ (200 U/mL) or the corresponding vehicle (0.1% DMSO; NT). Data are expressed as mean ± SEM of three independent experiments. Statistical significance was determined by one-way ANOVA followed by Bonferroni’s multiple-comparisons test; *, p < 0.05, **, p < 0.01, ***, p < 0.001 versus vehicle-treated control; ##, p < 0.01, ###, p < 0.001 versus 40 or LPS alone.
Figure S5. The effect of 40 on the production of cytokines from human PBMCs is NOD2 -dependent. PBMCs were pre-incubated for 1 h in the presence or absence of the NOD2 antagonist SG84 (10 µM), before the addition of 40 (1 µM). Cytokine concentrations in supernatants were measured after 18 h stimulation.
Data are expressed as mean s ± SEM of 3 independent experiments. Statistical significance was determined by one-way ANOVA followed by Bonferroni’s multiple comparisons test; **, p < 0.01, ***, p < 0.001. […]
4.9 Cytokine release from peripheral blood mononuclear cells
Peripheral blood mononuclear cells were seeded ( 500,000 cells/well) in 24-well plates in 500 µL growth medium and treated with MDP (1 µM), 2 (1 µM), or 40 (1 µM), in the presence or absence of LPS (10 ng/mL) or IFN-γ (200 U/mL), or the corresponding vehicle (0.1% DMSO). In some wells, PBMCs were pre-treated for 1 h with the NOD2 antagonist SG84 (10 µM), before the addition of 40 (1 µM). Cell-free supernatants were collected after 18 h of incubation (37 °C, 5% CO2) and stored at -80 °C until tested.
Cytokine production was determined with BD Cytometric Bead Array human inflammatory cytokines kit (BD Bioscience) on an Attune NxT flow cytometer (Thermo Fisher Scientific, Waltham, MA, USA). Standard curves were generated using recombinant cytokines contained in the kit. The data were analyzed using the FlowJo (Tree Star, Inc., Ashland, OR, USA) and Prism (GraphPad, San Diego, CA, USA) software.

Turning to `CCOC(=O)CC[C@@H](NC(=O)[C@@H](NC(=O)CNC(=O)/C=C/c1ccc(OC(=O)CC23CC4CC(CC(C4)C2)C3)c(OC)c1)C(C)C)C(=O)OCC` [Compound 40], for the setting “1 μM + IFN-γ 200 U/mL, 18 h”, the “production of IL-1β, IL-6 and TNF-α in combination with IFN-γ” value is “synergistically increased”; the “production of IL-8 in combination with IFN-γ” value is “no apparent effect”. In addition, for the setting “1 μM + LPS 10 ng/mL, 18 h”, the “production of IL-1β, IL-6 and TNF-α in combination with LPS” value was “superadditive manner”. Further, the “NOD2 dependence of cytokine production” value (40 1 µM, pretreatment with NOD2 antagonist SG84 10 µM) is “entirely NOD2-dependent”. Also, the “production of IL-1β, IL-6, IL-8 and TNF-α, stimulant alone” value (18 h, NOD2 agonists 1 μM, LPS 10 ng/mL, IFN-γ 200 U/mL) was “modest production”.
